The experiment has as its target T1, ERα (Homo sapiens, UniProt P03372).
T1 construct: host or cells: MCF7
T1 sequence (P03372 1-595): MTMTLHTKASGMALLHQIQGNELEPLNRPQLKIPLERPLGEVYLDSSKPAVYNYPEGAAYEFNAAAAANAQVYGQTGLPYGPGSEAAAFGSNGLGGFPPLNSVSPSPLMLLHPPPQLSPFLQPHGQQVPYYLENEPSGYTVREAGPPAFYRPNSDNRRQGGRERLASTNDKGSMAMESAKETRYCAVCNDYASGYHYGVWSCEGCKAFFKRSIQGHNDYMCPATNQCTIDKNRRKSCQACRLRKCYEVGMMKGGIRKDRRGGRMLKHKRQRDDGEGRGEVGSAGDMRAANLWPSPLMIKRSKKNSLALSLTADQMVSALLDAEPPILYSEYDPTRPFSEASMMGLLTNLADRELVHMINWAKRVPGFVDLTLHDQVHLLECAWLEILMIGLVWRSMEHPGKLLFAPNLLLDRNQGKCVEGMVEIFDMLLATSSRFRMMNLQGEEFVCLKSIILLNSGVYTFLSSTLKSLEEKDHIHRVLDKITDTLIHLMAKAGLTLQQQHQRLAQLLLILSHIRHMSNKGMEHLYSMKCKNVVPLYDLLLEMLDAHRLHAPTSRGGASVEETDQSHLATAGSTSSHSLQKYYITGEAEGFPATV
Nature of the experiment: Estrogen receptor degradation activity: breast cancer cell ERα in cell western assay (MCF7 cells). The class given is cell-based. Particulars: for % Degradation At 0.3 μM: 4 hours, relative to fulvestrant 0.1 μM positive control; for DC50: 4 hours post compound addition, concentration which degrades 50% of the estrogen receptor, read-out: Degradation IC50. The method in brief: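 In-cell western readout: ERα immunofluorescence (Alexa 488) normalised to DNA signal (Syto-64) after formalin fixation. Compounds dosed for 4 h on MCF7 cells in stripped-serum, phenol-red-free medium over nine 1:5 steps, 0.3 to […] final; fulvestrant 0.1 μM control. IC50 in nM for 50% ERα degradation.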

The structures appear in SMILES notation.

With `Cc1ccc(C2=C(c3ccc(C=C4CN(CCCF)C4)cc3)c3ccc(C(=O)O)cc3CCC2)cc1C(F)(F)F` [Example 144, 9-(4-((1-(3-fluoropropyl)azetidin-3-ylidene)methyl)phenyl)-8-(4-methyl-3-(trifluoromethyl)phenyl)-6,7-dihydro-5H-benzo[7]annulene-3-carboxylic acid], the “% Degradation At 0.3 μM” value was determined as 90% and the DC50 came to 0.4 nM.

As to `Cc1cc(C2=C(c3ccc(F)cc3C)CCCc3cc(C(=O)O)ccc32)ccc1C=C1CN(CCCF)C1.Cl` [Example 44, 8-(4-fluoro-2-methylphenyl)-9-(4-((1-(3-fluoropropyl)azetidin-3-ylidene)methyl)-3-methylphenyl)-6,7-dihydro-5H-benzo[7]annulene-3-carboxylic acid hydrochloride], the “% Degradation At 0.3 μM” value is 91% and the DC50 is 0.4 nM.

`O=C(O)c1ccc2c(c1)CCCC(c1ccc(C3CC3)cc1F)=C2c1ccc(C=C2CN(CCCF)C2)cc1` [Example 34, 8-(4-cyclopropyl-2-fluorophenyl)-9-(4-((1-(3-fluoropropyl)azetidin-3-ylidene)methyl)phenyl)-6,7-dihydro-5H-benzo[7]annulene-3-carboxylic acid]: the “% Degradation At 0.3 μM” value is 90% and the DC50 came to 0.3 nM.

For the molecule `COc1cc(C2=C(c3ccc(C=C4CN(CCCF)C4)cc3)c3ccc(C(=O)O)cc3CCC2)cc(C(F)(F)F)c1` [Example 150], the “% Degradation At 0.3 μM” value was determined as 88% and the DC50 was 1.7 nM.

Regarding `O=C(O)c1ccc2c(c1)CCCC(c1cc(Cl)cc(C(F)(F)F)c1)=C2c1ccc(C=C2CN(CCCF)C2)cc1` [Example 143, 8-(3-chloro-5-(trifluoromethyl)phenyl)-9-(4-((1-(3-fluoropropyl)azetidin-3-ylidene)methyl)phenyl)-6,7-dihydro-5H-benzo[7]annulene-3-carboxylic acid], the “% Degradation At 0.3 μM” value is listed as 81% and the DC50 turned out to be 3.7 nM.

`O=C(O)c1ccc2c(c1)CCCC(c1cccc(Cl)c1C(F)(F)F)=C2c1ccc(C=C2CN(CCC(F)(F)F)C2)cc1` [Example 107, 8-(3-chloro-2-(trifluoromethyl)phenyl)-9-(4-((1-(3,3,3-trifluoropropyl)azetidin-3-ylidene)methyl)phenyl)-6,7-dihydro-5H-benzo[7]annulene-3-carboxylic acid]: the “% Degradation At 0.3 μM” value amounted to 93% and the DC50 was 1.3 nM.

Turning to `O=C(O)c1ccc2c(c1)CCCC(c1cc(F)cc3c1CCC3)=C2c1ccc(C=C2CN(CCC(F)F)C2)cc1` [Example 162, 9-(4-((1-(3,3-difluoropropyl)azetidin-3-ylidene)methyl)phenyl)-8-(6-fluoro-2,3-dihydro-1H-inden-4-yl)-6,7-dihydro-5H-benzo[7]annulene-3-carboxylic acid], the “% Degradation At 0.3 μM” value amounted to 93% and the DC50 was determined as 1.9 nM.

For `O=C(O)c1ccc2c(c1)CCCC(c1ccc(F)cc1C1CC1)=C2c1ccc(C=C2CN(CCCF)C2)cc1` [Example 40, 8-(2-cyclopropyl-4-fluorophenyl)-9-(4-((1-(3-fluoropropyl)azetidin-3-ylidene)methyl)phenyl)-6,7-dihydro-5H-benzo[7]annulene-3-carboxylic acid], the “% Degradation At 0.3 μM” value came out at 87% and the DC50 turned out to be 0.3 nM.

Consider `Cc1cc(F)cc(C)c1C1=C(c2ccc(C=C3CN(CCCF)C3)cc2)c2ccc(C(=O)O)cc2CCC1` [Example 90, 8-(4-fluoro-2,6-dimethylphenyl)-9-(4-((1-(3-fluoropropyl)azetidin-3-ylidene)methyl)phenyl)-6,7-dihydro-5H-benzo[7]annulene-3-carboxylic acid], for which the “% Degradation At 0.3 μM” value came to 93% and the DC50 amounted to 0.2 nM.

On to `COc1nccc(C2=C(c3ccc(C=C4CN(CCCF)C4)cc3)c3ccc(C(=O)O)cc3CCC2)c1F` [Example 2, 8-(3-fluoro-2-methoxypyridin-4-yl)-9-(4-((1-(3-fluoropropyl)azetidin-3-ylidene)methyl)phenyl)-6,7-dihydro-5H-benzo[7]annulene-3-carboxylic acid], for which the “% Degradation At 0.3 μM” value worked out at 92% and the DC50 worked out at 0.6 nM.

`O=C(O)c1ccc2c(c1)CCCC(c1cc(F)cc(C(F)(F)F)c1Cl)=C2c1ccc(C=C2CN(CCCF)C2)cc1` [Example 123, 8-(2-chloro-5-fluoro-3-(trifluoromethyl)phenyl)-9-(4-((1-(3-fluoropropyl)azetidin-3-ylidene)methyl)phenyl)-6,7-dihydro-5H-benzo[7]annulene-3-carboxylic acid]: the “% Degradation At 0.3 μM” value is given as 94% and the DC50 amounted to 0.7 nM.

Consider `O=C(O)c1ccc2c(c1)CCCC(c1ccc(F)cc1F)=C2c1ccc(C=C2CN(CCCF)C2)c(F)c1` [Example 53, 8-(2,4-difluorophenyl)-9-(3-fluoro-4-((1-(3-fluoropropyl)azetidin-3-ylidene)methyl)phenyl)-6,7-dihydro-5H-benzo[7]annulene-3-carboxylic acid], for which the “% Degradation At 0.3 μM” value amounted to 94% and the DC50 was found to be 0.3 nM.

Regarding `Cc1ccc(C(F)(F)F)cc1C1=C(c2ccc(C=C3CN(CCCF)C3)cc2)c2ccc(C(=O)O)cc2CCC1` [Example 136, 9-(4-((1-(3-fluoropropyl)azetidin-3-ylidene)methyl)phenyl)-8-(2-methyl-5-(trifluoromethyl)phenyl)-6,7-dihydro-5H-benzo[7]annulene-3-carboxylic acid], the “% Degradation At 0.3 μM” value amounted to 92% and the DC50 was 0.8 nM.

For `Cl.O=C(O)c1ccc2c(c1)CCCC(c1ccc(Cl)cc1Cl)=C2c1cc(F)c(C=C2CN(CCCF)C2)cc1F` [Example 92, 8-(2,4-dichlorophenyl)-9-(2,5-difluoro-4-((1-(3-fluoropropyl)azetidin-3-ylidene)methyl)phenyl)-6,7-dihydro-5H-benzo[7]annulene-3-carboxylic acid hydrochloride], the “% Degradation At 0.3 μM” value was 98% and the DC50 turned out to be 0.3 nM.

For the molecule `Oc1ccc2c(c1)CCCC(c1ccc(Cl)cc1Cl)=C2c1ccc(C=C2CN(CCCF)C2)cc1` [Example 170, 8-(2,4-dichlorophenyl)-9-(4-((1-(3-fluoropropyl)azetidin-3-ylidene)methyl)phenyl)-6,7-dihydro-5H-benzo[7]annulen-3-ol], the “% Degradation At 0.3 μM” value worked out at 85% and the DC50 came to 0.2 nM.

`Cc1ccc(F)cc1C1=C(c2ccc(C=C3CN(CCCF)C3)cc2)c2ccc(C(=O)O)cc2CCC1` [Example 38, 8-(5-fluoro-2-methylphenyl)-9-(4-((1-(3-fluoropropyl)azetidin-3-ylidene)methyl)phenyl)-6,7-dihydro-5H-benzo[7]annulene-3-carboxylic acid]: the “% Degradation At 0.3 μM” value is given as 91% and the DC50 was found to be 0.2 nM.

Take `O=C(O)c1ccc2c(c1)CCCC(c1ccc3c(c1F)CCC3)=C2c1ccc(C=C2CN(CCC(F)F)C2)cc1` [Example 161, 9-(4-((1-(3,3-difluoropropyl)azetidin-3-ylidene)methyl)phenyl)-8-(4-fluoro-2,3-dihydro-1H-inden-5-yl)-6,7-dihydro-5H-benzo[7]annulene-3-carboxylic acid]: the “% Degradation At 0.3 μM” value was determined as 92% and the DC50 is 1.2 nM.

With `O=C(O)c1ccc2c(c1)CCCC(c1ccc(Cl)cc1)=C2c1ccc(C=C2CN(CCCF)C2)cc1` [Example 181, 8-(4-chlorophenyl)-9-(4-((1-(3-fluoropropyl)azetidin-3-ylidene)methyl)phenyl)-6,7-dihydro-5H-benzo[7]annulene-3-carboxylic acid], the “% Degradation At 0.3 μM” value turned out to be 91% and the DC50 came to 0.5 nM.

Consider `Cc1cccc(C2=C(c3ccc(C=C4CN(CCCF)C4)cc3)c3ccc(C(=O)O)cc3CCC2)c1C(F)(F)F` [Example 118, 9-(4-((1-(3-fluoropropyl)azetidin-3-ylidene)methyl)phenyl)-8-(3-methyl-2-(trifluoromethyl)phenyl)-6,7-dihydro-5H-benzo[7]annulene-3-carboxylic acid], for which the “% Degradation At 0.3 μM” value worked out at 93% and the DC50 was 0.4 nM.

As for `Cc1c(C2=C(c3ccc(C=C4CN(CCC(F)F)C4)cc3)c3ccc(C(=O)O)cc3CCC2)cccc1C(F)(F)F` [Example 134, 9-(4-((1-(3,3-difluoropropyl)azetidin-3-ylidene)methyl)phenyl)-8-(2-methyl-3-(trifluoromethyl)phenyl)-6,7-dihydro-5H-benzo[7]annulene-3-carboxylic acid], the “% Degradation At 0.3 μM” value is recorded as 93% and the DC50 came out at 1.1 nM.

On to `O=C(O)c1ccc2c(c1)CCCC(c1cccc3c1CCC3(F)F)=C2c1ccc(C=C2CN(CCC(F)F)C2)cc1` [Example 164, 8-(1,1-difluoro-2,3-dihydro-1H-inden-4-yl)-9-(4-((1-(3,3-difluoropropyl)azetidin-3-ylidene)methyl)phenyl)-6,7-dihydro-5H-benzo[7]annulene-3-carboxylic acid], for which the “% Degradation At 0.3 μM” value came to 93% and the DC50 was determined as 1.4 nM.

With `Cc1c(C2=C(c3ccc(C=C4CN(CCCF)C4)cc3)c3ccc(C(=O)O)cc3CCC2)cccc1C(F)(F)F` [Example 14], the “% Degradation At 0.3 μM” value was determined as 88% and the DC50 was 0.2 nM.

For the origin of these results see patent publication US12612360B2 (Sanofi, priority 2020, dated 2026).
